Results reported in patent US11371055B2, “Herbicide resistance genes” (CORTEVA AGRISCIENCE LLC, priority 2005, dated 2022).

What was measured:
[1] = tested on: AAD-12 (v1) gene T1 transformants (Arabidopsis); assay: T1 Arabidopsis postemergence herbicide dose response, % visual injury; format: in vivo, Arabidopsis thaliana
Experimental: Freshly harvested T1 seed [AAD-12 (v1) gene] was allowed to dry for 7 days at room temperature. T1 seed was sown in 26.5×51-cm germination trays (T.O. Plastics Inc., Clearwater, Minn.), each receiving a 200 mg aliquots of stratified T, seed (˜10,000 seed) that had previously been suspended in 40 ml of 0.1% agarose solution and stored at 4° C. for 2 days to complete dormancy requirements and ensure synchronous seed germination.
Sunshine Mix LP5 (Sun Gro Horticulture Inc., Bellevue, Wash.) was covered with fine vermiculite and subirrigated with Hoagland's solution until wet, then allowed to gravity drain. Each 40 ml aliquot of stratified seed was sown evenly onto the vermiculite with a pipette and covered with humidity domes (KORD Products, Bramalea. Ontario, Canada) for 4-5 days. Domes were removed 1 day prior to initial transformant selection using glufosinate postemergence spray (selecting for the co-transformed PAT gene).
Seven days after planting (DAP) and again 11 DAP, T1 plants (cotyledon and 2-4-lf stage, respectively) were sprayed with a 0.2% solution of Liberty herbicide (200 g ai/L glufosinate, Bayer Crop Sciences, Kansas City, Mo.) at a spray volume of 10 ml/tray (703 L/ha) using a DeVilbiss compressed air spray tip to deliver an effective rate of 280 g ai/ha glufosinate per application. Survivors (plants actively growing) were identified 4-7 days after the final spraying and transplanted individually into 3-inch pots prepared with potting media (Metro Mix 360). Transplanted plants were covered with humidity domes for 3-4 days and placed in a 22° C. growth chamber as before or moved to directly to the greenhouse. Domes were subsequently removed and plants reared in the greenhouse (22±5° C., 50±30% RH, 14 h light:10 dark, minimum 500 μE/m^2 s^1 natural+supplemental light) at least 1 day prior to testing for the ability of AAD-12 (v1) (plant optimized gene) to provide phenoxy auxin herbicide resistance.
(§1) T1 plants were then randomly assigned to various rates of 2,4-D. For Arabidopsis, 50 g ae/ha 2,4-D is an effective dose to distinguish sensitive plants from ones with meaningful levels of resistance. Elevated rates were also applied to determine relative levels of resistance (50, 200, 800, or 3200 g ac/ha). Tables 10 and 11 show comparisons drawn to an aryloxyalkanoate herbicide resistance gene (AAD-1 (v3)) previously described in PCT/US2005/014737.
(§2) All auxin herbicide applications were made using the DeVilbiss sprayer as described above to apply 703 L/ha spray volume (0.4 ml solution/3-inch pot) or applied by track sprayer in a 187 L/ha spray volume. 2,4-D used was either technical grade (Sigma, St. Louis, Mo.) dissolved in DMSO and diluted in water (<1% DMSO final concentration) or the commercial dimethylamine salt formulation (456 g ac/L, NuFarm, St Joseph, Mo.). Dichlorprop used was commercial grade formulated as potassium salt of R-dichlorprop (600 g ai/L, AH Marks). As herbicide rates increased beyond 800 g ae/ha, the pH of the spray solution became exceedingly acidic, burning the leaves of young, tender Arabidopsis plants and complicating evaluation of the primary effects of the herbicides. It became standard practice to apply these high rates of herbicides in 200 mM HEPES buffer, pH 7.5.
The first Arabidopsis transformations were conducted using AAD-12 (v1) (plant optimized gene). T1 transformants were first selected from the background of untransformed seed using a glufosinate selection scheme. Over 300,000 T1 seed were screened and 316 glufosinate resistant plants were identified (PAT gene), equating to a transformation/selection frequency of 0.10% which lies in the normal range of selection frequency of constructs where PAT+Liberty are used for selection. T1 plants selected above were subsequently transplanted to individual pots and sprayed with various rates of commercial aryloxyalkanoate herbicides. […]

[2] = tested on: Homozygous AAD-1 (v3) gene T4 plants (Arabidopsis); assay: T1 Arabidopsis postemergence herbicide dose response, AAD-1 comparison; format: in vivo, Arabidopsis thaliana
Text: as §1, §2
The first Arabidopsis transformations were conducted using AAD-12 (v1) (plant optimized gene). T1 transformants were first selected from the background of untransformed seed using a glufosinate selection scheme. Over 300,000 T1 seed were screened and 316 glufosinate resistant plants were identified (PAT gene), equating to a transformation/selection frequency of 0.10% which lies in the normal range of selection frequency of constructs where PAT+Liberty are used for selection. T1 plants selected above were subsequently transplanted to individual pots and sprayed with various rates of commercial aryloxyalkanoate herbicides. Table 11 compares the response of AAD-12 (v1) and control genes to impart 2,4-D resistance to Arabidopsis T1 transformants. Response is presented in terms of % visual injury 2 WAT. […] Since each T1 is an independent transformation event, one can expect significant variation of individual T1 responses within a given rate. An arithmetic mean and standard deviation is presented for each treatment. The range in individual response is also indicated in the last column for each rate and transformation. PAT/Cry1F-transformed Arabidopsis served as an auxin-sensitive transformed control. The AAD-12 (v1) gene imparted herbicide resistance to individual T1 Arabidopsis plants. Within a given treatment, the level of plant response varied greatly and can be attributed to the fact each plant represents an independent transformation event. Of important note, at each 2,4-D rate tested, there were individuals that were unaffected while some were severely affected. […] Injury levels tend to be greater and the frequency of uninjured plants was lower at elevated rates up to 3,200 g ae/ha (or 6× field rate). Also at these high rates, the spray solution becomes highly acidic unless buffered. Arabidopsis grown mostly in the growth chamber has a very thin cuticle and severe burning effects can complicate testing at these elevated rates. Nonetheless, many individuals have survived 3.200 g ac/ha 2,4-D with little or no injury.

[3] = 50 g ae/ha 2,4-D postemergence, 2 WAT
[4] = 200 g ae/ha 2,4-D postemergence, 2 WAT
[5] = 800 g ae/ha 2,4-D postemergence, 2 WAT
[6] = 3200 g ae/ha 2,4-D postemergence, 2 WAT
[7] = 50 g ae/ha R-dichlorprop postemergence
[8] = 200 g ae/ha R-dichlorprop postemergence
[9] = 800 g ae/ha R-dichlorprop postemergence
[10] = 3200 g ae/ha R-dichlorprop postemergence

O=C(O)COc1ccc(Cl)cc1Cl [2,4-D, 2,4-dichlorophenoxyacetic acid]
0%: % Injury Ave [2, 3] | % Injury Ave [2, 4] | % Injury Ave [2, 5]
2%: % Injury Ave [2, 6]
11%: % Injury Ave [1, 4]
16%: % Injury Ave [1, 3]
0: % Injury 20-40% (number of individuals) [1, 3] | % Injury 20-40% (number of individuals) [1, 6] | % Injury >40% (number of individuals) [1, 6] | % Injury 20-40% (number of individuals) [2, 3] | % Injury >40% (number of individuals) [2, 3] | % Injury 20-40% (number of individuals) [2, 4] | % Injury >40% (number of individuals) [2, 4] | % Injury 20-40% (number of individuals) [2, 5] | % Injury >40% (number of individuals) [2, 5] | % Injury >40% (number of individuals) [2, 6]
5: % Injury <20% (number of individuals) [1, 5]
6: % Injury <20% (number of individuals) [1, 3] | % Injury <20% (number of individuals) [1, 4]
1: % Injury 20-40% (number of individuals) [1, 4] | % Injury >40% (number of individuals) [1, 4] | % Injury >40% (number of individuals) [1, 5] | % Injury 20-40% (number of individuals) [2, 6]
8: % Injury <20% (number of individuals) [1, 6]
9: % Injury <20% (number of individuals) [2, 6]
10: % Injury <20% (number of individuals) [2, 3] | % Injury <20% (number of individuals) [2, 4] | % Injury <20% (number of individuals) [2, 5]
2: % Injury >40% (number of individuals) [1, 3] | % Injury 20-40% (number of individuals) [1, 5]
15%: % Injury Ave [1, 5]

C[C@@H](Oc1ccc(Cl)cc1Cl)C(=O)O [(R)-dichlorprop, R-2,4-dichlorophenoxypropionic acid]
0: % Injury 20-40% (number of individuals) [1, 7] | % Injury <20% (number of individuals) [1, 7] | % Injury 20-40% (number of individuals) [1, 8] | % Injury <20% (number of individuals) [1, 8] | % Injury 20-40% (number of individuals) [1, 9] | % Injury <20% (number of individuals) [1, 9] | % Injury 20-40% (number of individuals) [1, 10] | % Injury <20% (number of individuals) [1, 10] | % Injury 20-40% (number of individuals) [2, 7] | % Injury >40% (number of individuals) [2, 7] | % Injury 20-40% (number of individuals) [2, 8] | % Injury >40% (number of individuals) [2, 8] | % Injury 20-40% (number of individuals) [2, 9] | % Injury >40% (number of individuals) [2, 9] | % Injury 20-40% (number of individuals) [2, 10] | % Injury >40% (number of individuals) [2, 10]
85%: % Injury Ave [1, 8]
63%: % Injury Ave [1, 7]
96%: % Injury Ave [1, 9]
8: % Injury >40% (number of individuals) [1, 7] | % Injury >40% (number of individuals) [1, 8] | % Injury >40% (number of individuals) [1, 9] | % Injury >40% (number of individuals) [1, 10]
10: % Injury <20% (number of individuals) [2, 7] | % Injury <20% (number of individuals) [2, 8] | % Injury <20% (number of individuals) [2, 9] | % Injury <20% (number of individuals) [2, 10]
98%: % Injury Ave [1, 10]
0%: % Injury Ave [2, 7] | % Injury Ave [2, 8] | % Injury Ave [2, 9] | % Injury Ave [2, 10]
